# ChEMBL document CHEMBL5113389, “Topoisomerase I inhibitors: Challenges, progress and the road ahead” (Eur J Med Chem, 2022)
# Key:
# [1] = biological target: T1, DNA topoisomerase 1 (Homo sapiens) (UniProt P11387); experiment: Inhibition of full-length recombinant human Top1 expressed in baculovirus infected Sf9 insect cells at 5 uM incubated for 30 mins relative to control
# T1 sequence (whole entry): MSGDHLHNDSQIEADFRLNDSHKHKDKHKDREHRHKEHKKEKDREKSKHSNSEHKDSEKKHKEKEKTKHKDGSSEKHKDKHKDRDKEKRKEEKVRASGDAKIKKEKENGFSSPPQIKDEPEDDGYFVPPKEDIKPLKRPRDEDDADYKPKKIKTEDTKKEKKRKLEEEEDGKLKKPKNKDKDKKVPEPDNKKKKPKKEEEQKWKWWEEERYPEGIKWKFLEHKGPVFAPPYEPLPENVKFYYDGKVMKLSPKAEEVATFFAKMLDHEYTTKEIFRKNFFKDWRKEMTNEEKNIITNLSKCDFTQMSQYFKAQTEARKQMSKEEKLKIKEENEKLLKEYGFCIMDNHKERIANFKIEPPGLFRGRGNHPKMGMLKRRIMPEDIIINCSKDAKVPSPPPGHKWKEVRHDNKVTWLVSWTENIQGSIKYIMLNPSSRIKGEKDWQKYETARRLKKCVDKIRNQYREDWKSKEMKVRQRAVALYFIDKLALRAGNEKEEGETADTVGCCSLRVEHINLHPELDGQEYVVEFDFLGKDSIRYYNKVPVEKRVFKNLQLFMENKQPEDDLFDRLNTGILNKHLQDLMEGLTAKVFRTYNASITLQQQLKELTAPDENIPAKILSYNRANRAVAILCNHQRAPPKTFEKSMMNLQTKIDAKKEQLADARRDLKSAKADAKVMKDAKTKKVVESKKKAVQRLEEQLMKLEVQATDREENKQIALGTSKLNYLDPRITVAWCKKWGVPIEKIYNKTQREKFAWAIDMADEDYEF
# HCT-116 [2] = experiment: Cytotoxicity against human HCT-116 cells assessed as cell growth inhibition measured after 4 days by MTT assay; type: functional, cell-based; settings: HCT-116, 96 h
# RPMI 8402 = experiment: Cytotoxicity against human RPMI 8402 cells assessed as cell growth inhibition measured after 4 days by MTT assay; type: functional, cell-based; settings: RPMI 8402, 96 h
# HCT-116 [3] = experiment: Cytotoxicity against human HCT-116 cells assessed as cell growth inhibition incubated for 3 days by SRB assay; type: functional, cell-based; settings: HCT-116, 72 h
# MCF7 = experiment: Cytotoxicity against human MCF7 cells assessed as cell growth inhibition incubated for 3 days by SRB assay; type: functional, cell-based; settings: MCF7, 72 h
# U-937 = experiment: Cytotoxicity against human U-937 cells assessed as cell growth inhibition incubated for 3 to 4 days by MTT assay; type: functional, cell-based
# P388CPT45 = experiment: Cytotoxicity against mouse P388CPT45 cells assessed as cell growth inhibition incubated for 3 to 4 days by MTT assay; type: functional, cell-based
# [4] = Cytotoxicity against human U-937/CR cells assessed as cell growth inhibition incubated for 3 to 4 days by MTT assay; type: functional, cell-based
# P388 [5] = experiment: Cytotoxicity against mouse P388 cells assessed as cell growth inhibition incubated for 3 to 4 days by MTT assay; type: functional, cell-based
# [6] = biological target: T1, DNA topoisomerase 1 (Homo sapiens); experiment: Inhibition of human Top1 expressed in Escherichia coli assessed as enzyme-mediated DNA cleavage by measuring relative effective concentration incubated for 30 mins relative to topotecan
# HCT-116 [7] = experiment: Cytotoxicity against human HCT-116 cells assessed as cell growth inhibition incubated for 72 hrs by MTT assay; type: functional, cell-based; settings: HCT-116, 72 h
# K562 = experiment: Cytotoxicity against human K562 cells assessed as cell growth inhibition incubated for 72 hrs by MTT assay; type: functional, cell-based; settings: K562, 72 h
# [8] = biological target: T1, DNA topoisomerase 1 (Homo sapiens); experiment: Inhibition of Top1 in [3H]-Thymidine-labeled human MCF7 cells assessed as Top1-DNA complex formation at 30 uM incubated for 60 mins followed by addition of salmon sperm DNA and subsequent addition of KCl relative to control; type: cell-based
# K5 = experiment: Cytotoxicity against human camptothecin-resistant K5 cells assessed as cell growth inhibition measured after 4 days by MTT assay; type: functional, cell-based; settings: K5, 96 h
# CCRF-CEM = experiment: Cytotoxicity against human CEM cells assessed as cell growth inhibition; type: functional, cell-based
# P388 [9] = experiment: Cytotoxicity against mouse P388 cells assessed as cell growth inhibition; type: functional, cell-based
smiles,measurement,setting,value
O=c1c2ccccc2nc2n1Cc1cc3c(Br)cccc3nc1-2,inhibition,[1],54%
COc1ccc2c(ccc3c4cc5c(cc4nnc23)OCO5)c1,IC50,HCT-116 [2],40 nM
same,IC50,RPMI 8402,70 nM
CC[C@@]1(O)C(=O)Cc2c1cc1n(c2=O)Cc2c-1nc1cc3c(cc1c2C1CCC1)OCO3,IC50,HCT-116 [3],6 nM
same,IC50,MCF7,3 nM
CN(C)CCn1c(=O)c2ccc([N+](=O)[O-])cc2c2cnc3cc4c(cc3c21)OCO4,IC50,RPMI 8402,3 nM
O=c1c2ccccc2nc2n1Cc1cc3ccccc3nc1-2,inhibition,[1],18%
COc1cc2ccc3c4cc5c(cc4ncc3c2cc1OC)OCO5,IC50,U-937,40 nM
same,IC50,P388CPT45,180 nM
same,IC50,[4],50 nM
same,IC50,P388 [5],190 nM
COc1cc2c(=O)n(CCN(C)C)c3c4ccc(N)cc4ncc3c2cc1OC,IC50,RPMI 8402,100 nM
COc1cc2c(=O)n(CCN(C)C)c3c4cc([N+](=O)[O-])ccc4ncc3c2cc1OC,IC50,RPMI 8402,18 nM
CN(C)CCn1c(=O)c2cc([N+](=O)[O-])ccc2c2cnc3cc4c(cc3c21)OCO4,IC50,RPMI 8402,2 nM
same,Ratio,[6],0.1
O=c1c2ccccc2nc2n1Cc1c-2nc2ccccc2c1C(F)(F)F,IC50,HCT-116 [7],17000 nM
same,IC50,K562,21000 nM
COc1cc2c(=O)n(CCN(C)C)c3c4ccc([N+](=O)[O-])cc4ncc3c2cc1OC,IC50,RPMI 8402,75 nM
CN1c2ccccc2C(=O)N2CCc3c([nH]c4ccccc34)C21 (stereo not given),inhibition,[8],24.2%
COc1cc2c(=O)n(CCN(C)C)c3c4cc(N)ccc4ncc3c2cc1OC,IC50,RPMI 8402,40 nM
COc1cc2ncc3c4cc5c(cc4ccc3c2cc1OC)OCO5,IC50,K5,10800 nM
same,IC50,RPMI 8402,4500 nM
COc1cc(-c2c3c4cc(OC)c(O)cc4oc(=O)c3n3ccc4cc(O)c(OC)cc4c23)ccc1O [LAMELLARIN D],IC50,CCRF-CEM,14 nM
same,IC50,P388 [9],136 nM
O=c1c2ccccc2nc2n1Cc1cc3c(Cl)cccc3nc1-2,inhibition,[1],48%
